Reference: patent US11420922B2, “Hydroxylated tropolone inhibitors of nucleotidyl transferases in herpesvirus and Hepatitis B and uses therefor” (Saint Louis University, priority 2015, dated 2022)
Read-outs that look alike come from different tables or passages of the source.

Tests used:
HSV-2 = experiment: Anti-HSV-2 replication assay in Vero cells, titers by plaque assay; format: cell-based, herpes simplex virus 2; conditions: for log reduction at 5 µM / log reduction at 50 µM: Human alphaherpesvirus 2, Vero, 24 h; for log reduction at 5 µM: read-out: HSV-2 Log suppression 5 μM; for log reduction at 50 µM: read-out: HSV-2 Log suppression 50 μM
HSV-1 = experiment: Anti-HSV-1 replication assay in Vero cells, titers by plaque assay; format: cell-based, herpes simplex virus 1; conditions: Human alphaherpesvirus 1, Vero; for log reduction at 5 µM / log reduction at 50 µM: 24 h; for log reduction at 5 µM: read-out: HSV-1 Log suppression 5 μM; for log reduction at 50 µM: read-out: HSV-1 Log suppression 50 μM; for log reduction at 1.5 µM: read-out: HSV-1 Log suppression 1.5 μM
Description: Vero cells were maintained in Dulbecco's modified Eagle's medium (DMEM) containing 3% newborn calf serum, 3% bovine growth serum, 2 mM L-glutamine and 100 IU/mL penicillin and 0.1 mg/mL streptomycin (P/S). HSV-1 #6 and HSV-2 #1 are de-identified clinical isolates from the Saint Louis University Hospital. Stocks were prepared after a single passage in cell culture and were titered by standard plaque assay (Knipe and Spang, 1982). Wild-type HSV-2 used in FIG. 3 was laboratory strain 333. […] Virus stocks were grown and titered on Vero cells (Morrison and Knipe, 1996).
(§1) Compounds to be screened were diluted in PBS supplemented to contain 2% newborn calf serum and 1% glutamine, and added in 100 μL volume to confluent cell monolayers in 24-well cluster plates. Immediately thereafter HSV-1 and HSV-2, diluted in the supplemented PBS medium, were added to the wells in 50 μl volume such that the final concentration of compound was 50 μM and 5 μM and the multiplicity of infection was 0.1. The plates were incubated at 37° C. for 1 hour and then virus-containing inoculum was removed and the wells were washed once in PBS. Compounds, diluted to 50 μM and 5 μM in DMEM supplemented to contain 2% newborn calf serum and 1% each penicillin/streptomycin, were added at 0.5 mL/well. Plates were incubated at 37° C. an additional 23 hr, and then the plates were visually inspected through a phase contrast microscope for cytopathic effect, and for toxic effect. […] The entire contents of each well were collected by scraping. Samples were frozen at −80° C., and then subsequently thawed, sonicated, and infectious virus titer was determined by standard plaque assay on Vero cell monolayers. Because the compounds were dissolved at 10 mM in 100% DMSO, equivalent dilutions of DMSO were added to additional wells as a control for effects of the diluent. Each experiment was repeated once. EC50 values were determined as above except that serial dilutions of the compound to be tested were prepared starting at 50 μM. The inhibitory values were calculated by non-linear curve-fitting in GraphPad Prism.

HSV = experiment: Anti-HSV SAR summary, HSV type not separated; format: cell-based, herpes simplex virus; conditions: grouped by activity at 50, 5 and 0.5 μM
Description: as §1
A series of over 20 synthetic αHTs were synthesized and tested to both confirm the initial SAR, and to provide leads for further optimization pursuits (FIG. 5). […] Specifically, biphenyl-containing molecules #118 and 115 inhibit HSV replication by up to 4 log10 at 200 nM. The increased potency over close analogs #111 and 113 confirmed the importance of added lipophilicity.

HBV = HBV replication assay in HepDES19 cells; format: cell-based; conditions: Hepatitis B virus; HepDES19 cells; read-out: EC50 (HBV assay)
Description: HBV replication assay. Inhibition of HBV replication was measured in HepDES19 cells as previously described (Cai, et al., 2014). Cells were seeded into 6-well plates and incubated in DMEM/F12, 10% fetal bovine serum (FBS), 1% penicillin/streptomycin (P/S) with 1 μg/ml tetracycline. Tetracycline was withdrawn after 24 hours. The test compound was applied to duplicate wells 48 hours later in medium containing a final DMSO concentration of 1%, and medium containing the compound was refreshed daily for the following two days. Cells were harvested and non-encapsidated nucleic acids were digested with micrococcal nuclease (New England Biolabs). HBV DNA was purified from capsids using QIAamp Cador Pathogen Mini Kit (Qiagen) with proteinase K incubation overnight at 37° C. TaqMan PCR was performed for 40 cycles at an annealing temperature of 60° C. Primers and probe (IDT Inc.) for the plus-polarity strand were: 5′[…]3′ (SEQ ID NO: 1); 5′[…]3′ (SEQ ID NO: 2); 5′/56-FAM/[…]/ZEN/[…]/3IABkFQ (SEQ ID NO: 3). Primers and probe for the minus-polarity strand were: 5′[…]3′ (SEQ ID NO: 4); 5′[…]3′ (SEQ ID NO: 5); 5′/56-FAM/[…]/ZEN/[…]/3IABkFQ (SEQ ID NO: 6).

[1] = Cytotoxicity reported with the HBV assay (Table 4); format: cell-based; conditions: human
Description: Qualitative assessments of cytotoxicity were done visually by inspecting the cells in the primary screening assays. For the quantitative assays, cells were plated in 96-well plates at 1.0×10^4 per well. The next day the compounds were added at 0.78 to 100 μM in a final concentration of 1% (v/v) DMSO, and the cells were incubated for 24 hours under conditions identical to those employed for the viral replication inhibition assays. Mitochondrial toxicity was measured by incubating the cells with 0.25 mg/mL thiazolyl blue tetrazolium bromide (MTT, Sigma Aldrich Chemical Co.), the cultures were incubated for 60 min, metabolites were solubilized in acidic isopropanol, and absorbance was read at 570 nm. CC50 values were calculated by non-linear curve fitting using GraphPad Prism.

[2] = 5 μM, moi 0.1, 24 h, vs DMSO, +/− are qualitative, key not given
[3] = 50 μM, moi 0.1, 24 h, vs DMSO, +/−/T are qualitative, key not given
[4] = hepatoma cells, read-out: CC50 (HBV assay table)

Row | SMILES | log reduction at 5 µM (HSV-2) | log reduction at 50 µM (HSV-2) | log reduction at 5 µM (HSV-1) | log reduction at 50 µM (HSV-1) | CC50 at 24 h [1, 4] [µM] | log reduction at 1.5 µM (HSV-1) | further results
1 | Nc1ccn(C[C@@H](CO)OCP(=O)(O)O)c(=O)n1 [CDV, Cidofovir, reference compound] | – | – | – | – | – | – | log reduction at 5 µM (HSV-2; [2]): 0.38; log reduction at 50 µM (HSV-2; [3]): 1.19; log reduction at 5 µM (HSV-1; [2]): 0.77; log reduction at 50 µM (HSV-1; [3]): 2.67
2 | COC(=O)c1c(C)cc(O)c(=O)c(O)c1C(=O)OC [Compound 106] | -0.55 | 2.87 | -0.07 | 4.11 | – | – | anti-HSV SAR group, in words (HSV): weakest inhibitors; EC50 (HBV): 2.7 µM
3 | COC(=O)c1c(CCl)cc(O)c(=O)c(O)c1C(=O)OC [Compound 107] | – | – | – | – | 71 | – | –
4 | COCc1cc(O)c(=O)c(O)c(C(=O)OC)c1C(=O)OC [Compound 108] | 0 | – | 0 | – | 81 | – | anti-HSV SAR group, in words (HSV): weakest inhibitors
5 | CCOC(=O)c1cc(O)c(=O)c(O)cc1C [Compound 109] | -0.22 | 4.15 | 0.21 | 3.99 | – | – | anti-HSV SAR group, in words (HSV): weakest inhibitors
6 | Cc1cc(O)c(=O)c(O)cc1-c1ccc([N+](=O)[O-])cc1 [Compound 112] | -0.4 | 3.2 | 0.02 | 5.25 | – | – | anti-HSV SAR group, in words (HSV): weakest inhibitors; EC50 (HBV): 2.5 µM
7 | Cc1cc(O)c(=O)c(O)cc1-c1ccc(Cl)cc1 [Compound 144] | 0.65 | 5.18 | -0.34 | 3.83 | – | – | anti-HSV SAR group, in words (HSV): weakest inhibitors
8 | O=c1c(O)cccc2cc(O)c(O)c(O)c12 [Compound 195, purpurogallin] | -0.04 | 0.11 | 0.17 | 0.2 | – | – | –
9 | Cc1ccc(O)c(=O)c(O)c1 [Compound 210] | 4.04 | 5.55 | 4.32 | 4.56 | – | – | –
10 | Cc1cc(O)c(=O)c(O)cc1-c1cccc(-c2ccccc2)c1 [Compound 231] | – | – | – | – | 16 | – | EC50 (HBV): 10 µM
11 | Cc1cc(O)c(=O)c(O)cc1-c1cccc(-c2ccc3ccccc3c2)c1 [Compound 232] | – | – | – | – | 55 | – | EC50 (HBV): 9.6 µM
12 | Cc1cc(O)c(=O)c(O)cc1-c1ccc(-c2ccc3ccccc3c2)cc1 [Compound 233] | – | – | – | – | – | 2.63 | –
13 | Cc1cc(O)c(=O)c(O)cc1-c1cccc(-c2cccc3ccccc23)c1 [Compound 234] | – | – | – | – | – | 2.71 | –
14 | Cc1cc(O)c(=O)c(O)cc1-c1ccc(-c2cccc3ccccc23)cc1 [Compound 235] | – | – | – | – | 30 | – | EC50 (HBV): 5.2 µM
15 | Cc1cc(O)c(=O)c(O)cc1C(=O)c1cccc(-c2ccccc2)c1 [Compound 255] | – | – | – | – | – | 5.02 | –
16 | Cc1cc(O)c(=O)c(O)cc1C(=O)c1ccc(-c2cccc3ccccc23)cc1 [Compound 256] | – | – | – | – | – | 5.18 | –

Row | SMILES | log reduction at 5 µM (HSV-2) | log reduction at 50 µM (HSV-2) | log reduction at 5 µM (HSV-1) | log reduction at 50 µM (HSV-1) | CC50 at 24 h [1, 4] [µM] | log reduction at 1.5 µM (HSV-1) | further results
17 | Cc1cc(O)c(=O)c(O)cc1C(=O)c1cccc(-c2cccc3ccccc23)c1 [Compound 257] | – | – | – | – | 32 | 4.82 | EC50 (HBV): 8.3 µM
18 | Cc1cc(O)c(=O)c(O)cc1C(=O)c1ccc(-c2ccc3ccccc3c2)cc1 [Compound 258] | – | – | – | – | 28 | 5.04 | EC50 (HBV): 8.8 µM
19 | Cc1cc(O)c(=O)c(O)cc1C(=O)c1cccc(-c2ccc3ccccc3c2)c1 [Compound 259] | – | – | – | – | 21 | 5.05 | EC50 (HBV): 2.8 µM
20 | Cc1cc(O)c(=O)c(O)cc1C(=O)c1ccc(-c2ccncc2)cc1 [Compound 260] | – | – | – | – | – | 0.5 | –
21 | O=c1c(O)ccc(Br)cc1O [Compound 261] | – | – | – | – | > 100 | – | –
22 | O=c1c(O)ccc(-c2ccccc2)cc1O [Compound 262] | – | – | – | – | 96 | – | –
23 | O=c1c(O)ccc(-c2ccc(-c3ccccc3)cc2)cc1O [Compound 264] | – | – | – | – | 28 | – | –
24 | O=c1c(O)ccc(-c2ccco2)cc1O [Compound 265] | – | – | – | – | 40 | – | –
25 | O=c1c(O)ccc(-c2ccncc2)cc1O [Compound 266] | – | – | – | – | 32 | – | –
26 | O=c1c(O)ccc(-c2cnc3ccccc3c2)cc1O [Compound 267] | – | – | – | – | 25 | – | –
27 | COC(=O)c1c(C)cc(OC)c(=O)c(O)c1OC [Compound 269] | – | 4.67 | 1.48 | 3.76 | > 100 | 0.24 | HSV-2 Log suppression 1.5 μM (HSV-2; 1.5 μM): 4.04 log10
28 | CCOC(=O)c1c(C)cc(O)c(=O)c(O)c1O [Compound 270] | 6.32 | 6.9 | 5.97 | 6.47 | – | – | –
29 | O=C1OCc2cc(O)c(=O)c(O)c(O)c21 [Compound 271] | 1.53 | 2.94 | 0.47 | 1.87 | – | 0.21 | –
30 | COC(=O)c1cc(O)c(=O)c(OC)cc1C [Compound 273] | 6.32 | 6.9 | 5.75 | 6.05 | – | 2.12 | –
31 | COC(=O)c1cc(O)c(=O)c(O)cc1C [Compound 274] | – | – | – | – | > 100 | 0.59 | –
32 | COC(=O)c1c2c(cc(O)c(=O)c1O)COC2=O [Compound 280] | – | – | – | – | – | – | CC50 at 24 h [1]: 32 µM
